Source: patent US20240270699A1, “COMPOUNDS HAVING N-ARYLPYRIMIDIN-2-AMINE DERIVATIVES AS THERAPEUTIC AGENTS” (Lomond Therapeutics, Inc., priority 2021, published 2024)
pIC50: −log10 of the molar value.

The compounds below were run on Jurkat cells (assay: IL-2 release Jurkat assay (anti-CD3/anti-CD28 stimulation, IL-2 ELISA)). Conditions: Table C: Jurkat, 6 μM of tested compounds, activation with 400 ng/mL aCD3 + 400 ng/mL aCD28, 24 hours; stimulated vehicle = A.
Assay type: cell-based, human
With Cc1cc(Nc2ncc([N+](=O)[O-])c(N[C@H](CO)c3ccccc3)n2)ccc1S(C)(=O)=O [Compound 18, (2S)-2-[[2-(3-methyl-4-methylsulfonyl-anilino)-5-nitro-pyrimidin-4-yl]amino]-2-phenyl-ethanol] the “IL-2, pg/mL stimulated” value was “D (150 pg/mL≤IL-2)”.

Same assay, conditions: Table D: Jurkat, 6 μM of tested compounds, activation with 400 ng/mL aCD3 + 400 ng/mL aCD28, 24 hours; stimulated vehicle = B
With CCOC(=O)c1cnc(Nc2ccc(C(N)=O)c(C)c2)nc1N[C@H](CO)c1ccccc1 [Compound 10, Ethyl 2-(4-carbamoyl-3-methyl-anilino)-4-[[(1S)-2-hydroxy-1-phenyl-ethyl]amino]pyrimidine-5-carboxylate] the “IL-2, pg/mL stimulated” value was “D (150 pg/mL≤IL-2)”.

Same assay, conditions: Table G: Jurkat, 1.0 μM of tested compounds, activation with 400 ng/mL aCD3 + 400 ng/mL aCD28, 24 hours
For Cc1noc(-c2cnc(Nc3ccc4c(c3)CCN(COC(=O)C(C)(C)C)C4=O)nc2N[C@H](CO)c2ccccc2)n1 [Compound 581, [6-[[4-[[(1S)-2-hydroxy-1-phenyl-ethyl]amino]-5-(3-methyl-1,2,4-oxadiazol-5-l)pyrimidin-2-yl]amino]-1-oxo-3,4-dihydroisoquinolin-2-yl]methyl 2,2-dimethylpropanoate], the “IL-2, pg/mL stimulated” value was “D (150 pg/mL≤IL-2)”.

These compounds were tested against T1, recombinant HPK1 protein (Homo sapiens, UniProt Q92918) (assay: Primary assay of HPK1 enzymatic activity inhibition (ADP-Glo luminescence)). Conditions: recombinant HPK1, MBP substrate, 1 hour at room temperature.
T1 construct: purchased Promega V6398
T1 sequence (Q92918 1-346 limits assumed): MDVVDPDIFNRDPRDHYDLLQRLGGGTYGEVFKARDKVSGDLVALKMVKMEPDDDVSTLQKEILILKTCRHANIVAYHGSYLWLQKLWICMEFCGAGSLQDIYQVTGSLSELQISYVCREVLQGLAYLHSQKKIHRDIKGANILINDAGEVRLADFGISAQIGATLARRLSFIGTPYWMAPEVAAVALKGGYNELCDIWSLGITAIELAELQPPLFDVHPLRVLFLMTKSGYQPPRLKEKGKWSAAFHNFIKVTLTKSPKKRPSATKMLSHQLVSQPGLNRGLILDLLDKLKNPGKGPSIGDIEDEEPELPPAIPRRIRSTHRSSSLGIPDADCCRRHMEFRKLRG
Assay type: biochemical
With CS(=O)(=O)c1ccc(Nc2ncc(C#N)c(N[C@H](CO)c3ccccc3)n2)cc1F [Compound 2, 2-{[3-fluoro-4-(methylsulfonyl)phenyl]amino}-4-{[(1S)-2-hydroxy-1-phenylethyl]amino}pyrimidine-5-carbonitrile] the pIC50 was at most 6.30.
CCOC(=O)c1cnc(Nc2ccc(C(N)=O)c(C)c2)nc1N[C@H](CO)c1ccccc1 [Compound 10, Ethyl 2-(4-carbamoyl-3-methyl-anilino)-4-[[(1S)-2-hydroxy-1-phenyl-ethyl]amino]pyrimidine-5-carboxylate] was tested, and the pIC50 was 6.70 to 7.30.
Cc1cc(Nc2ncc([N+](=O)[O-])c(N[C@H](CO)c3ccccc3)n2)ccc1S(C)(=O)=O [Compound 18, (2S)-2-[[2-(3-methyl-4-methylsulfonyl-anilino)-5-nitro-pyrimidin-4-yl]amino]-2-phenyl-ethanol] showed a pIC50 of 6.30 to 6.70.
Compound CS(=O)(=O)c1ccc(Nc2ncc(C(=O)O)c(N[C@H](CO)c3ccccc3)n2)cc1F [Compound 42, 2-{[3-fluoro-4-(methylsulfonyl)phenyl]amino}-4-{[(1S)-2-hydroxy-1-phenylethyl]amino}pyrimidine-5-carboxylic Acid] has a pIC50 of at most 6.30.
With CCOC(=O)c1cnc(Nc2ccc(C(=O)NC)c(C)c2)nc1N[C@H](CO)c1ccccc1 [Compound 48, Ethyl 4-[[(1S)-2-hydroxy-1-phenyl-ethyl]amino]-2-[3-methyl-4-(methylcarbamoyl)anilino]pyrimidine-5-carboxylate] the pIC50 was at most 6.30.
CCOC(=O)c1cnc(Nc2ccc(C(=O)O)c(OC)c2)nc1N[C@H](CO)c1ccccc1 [Compound 62, 4-[[5-ethoxycarbonyl-4-[[(1S)-2-hydroxy-1-phenyl-ethyl]amino]pyrimidin-2-yl]amino]-2-methoxy-benzoic acid] was tested, and the pIC50 was 6.30 to 6.70.
CN1CCc2cc(Nc3ncc(-c4nnco4)c(N[C@H](CO)c4ccccc4)n3)ccc2C1=O [Compound 89, 6-[[4-[[(1S)-2-hydroxy-1-phenyl-ethyl]amino]-5-(1,3,4-oxadiazol-2-yl)pyrimidin-2-yl]amino]-2-methyl-3,4-dihydroisoquinolin-1-one] was tested, and the pIC50 was over 7.30.
Compound CCOC(=O)c1cnc(Nc2ccc(S(C)(=O)=O)c(F)c2)nc1N[C@H](C)c1ccccc1 [Compound 97, ethyl 2-(3-fluoro-4-methylsulfonyl-anilino)-4-[[(1R)-1-phenylethyl]amino]pyrimidine-5-carboxylate] has a pIC50 of at most 6.30.
CNC(=O)c1cnc(Nc2ccc(C(F)(F)F)c(Cl)c2)nc1N[C@H](CO)c1ccccc1 [Compound 132, 2-{[3-chloro-4-(trifluoromethyl)phenyl]amino}-4-{[(1S)-2-hydroxy-1-phenylethyl]amino}-N-methylpyrimidine-5-carboxamide] showed a pIC50 of at most 6.30.
Work on Cc1noc(-c2cnc(Nc3ccc4c(c3)CCN(C)C4=O)nc2N[C@H](CO)c2ccccc2)n1 [Compound 183, 6-[[4-[[(1S)-2-hydroxy-1-phenyl-ethyl]amino]-5-(3-methyl-1,2,4-oxadiazol-5-yl)pyrimidin-2-yl]amino]-2-methyl-3,4-dihydroisoquinolin-1-one] yielded a pIC50 of over 7.30.
CCOC(=O)c1cnc(Nc2ccc(C(=O)N(C)C)c(OC)c2)nc1N[C@H](CO)c1ccccc1 [Compound 247, Ethyl 2-[4-(dimethylcarbamoyl)-3-methoxy-anilino]-4-[[(1S)-2-hydroxy-1-phenyl-ethyl]amino]pyrimidine-5-carboxylate] gave a pIC50 of 6.30 to 6.70.
Compound CCOC(=O)c1cnc(Nc2ccc(C(F)(F)F)c(Cl)c2)nc1N[C@H](CO)c1ccccc1 [Compound 248, Ethyl 2-{[3-chloro-4-(trifluoromethyl)phenyl]amino}-4-{[(1S)-2-hydroxy-1-phenylethyl]amino}pyrimidine-5-carboxylate] has a pIC50 of at most 6.30.
CCOC(=O)c1cnc(Nc2ccc(S(C)(=O)=O)c(F)c2)nc1N[C@H]1c2ccccc2C[C@H]1O [Compound 298, ethyl 2-(3-fluoro-4-methylsulfonyl-anilino)-4-[[(1S,2R)-2-hydroxyindan-1-yl]amino]pyrimidine-5-carboxylate] was tested, and the pIC50 was at most 6.30.
CCOC(=O)c1cnc(Nc2ccc(S(C)(=O)=O)cc2OC)nc1N[C@H](CO)c1ccccc1 [Compound 299, Ethyl 4-{[(1S)-2-hydroxy-1-phenylethyl]amino}-2-{[2-methoxy-4-(methylsulfonyl)phenyl]amino}pyrimidine-5-carboxylate] was tested, and the pIC50 was at most 6.30.
CCOC(=O)c1cnc(Nc2ccc3c(c2)CCN(C(C)C)C3=O)nc1N[C@H](CO)c1ccccc1 [Compound 316, Ethyl 4-[[(1S)-2-hydroxy-1-phenyl-ethyl]amino]-2-[(2-isopropyl-1-oxo-3,4-dihydroisoquinolin-6-yl)amino]pyrimidine-5-carboxylate] showed a pIC50 of at most 6.30.
In the case of CS(=O)(=O)c1ccc(Nc2ncc(C(=O)N3CCCC3)c(N[C@H](CO)c3ccccc3)n2)cc1F [Compound 371, [2-(3-fluoro-4-methylsulfonyl-anilino)-4-[[(1S)-2-hydroxy-1-phenyl-ethyl]amino]pyrimidin-5-yl]-pyrrolidin-1-yl-methanone], the pIC50 was at most 6.30.
With CCOC(=O)c1cnc(Nc2ccc(S(C)(=O)=O)c(F)c2)nc1N1Cc2ccccc2CC1CO (stereo not drawn) [Compound 388, ethyl 2-(3-fluoro-4-methylsulfonyl-anilino)-4-[3-(hydroxymethyl)-3,4-dihydro-1H-isoquinolin-2-yl]pyrimidine-5-carboxylate] the pIC50 was at most 6.30.
CN(CCO)C(=O)c1cnc(Nc2ccc(S(C)(=O)=O)c(F)c2)nc1N[C@H](CO)c1ccccc1 [Compound 402, 2-(3-fluoro-4-methylsulfonyl-anilino)-N-(2-hydroxyethyl)-4-[[(1S)-2-hydroxy-1-phenyl-ethyl]amino]-N-methyl-pyrimidine-5-carboxamide] showed a pIC50 of at most 6.30.
With O=C(NC1CCCC1)c1cnc(Nc2ccc(F)c(-c3ccccc3)c2)nc1N[C@H](CO)c1ccccc1 [Compound 440, N-cyclopentyl-2-[(6-fluorobiphenyl-3-yl)amino]-4-{[(1S)-2-hydroxy-1-phenylethyl]amino}pyrimidine-5-carboxamide] the pIC50 was at most 6.30.
CCOC(=O)c1cnc(Nc2ccc3c(c2)C(=O)NC(C(C)C)C(=O)N3)nc1N[C@H](CO)c1ccccc1 (stereo partly drawn) [Compound 467, Ethyl 4-[[(1S)-2-hydroxy-1-phenyl-ethyl]amino]-2-[(3-isopropyl-2,5-dioxo-3,4-dihydro-1H-1,4-benzodiazepin-7-yl)amino]pyrimidine-5-carboxylate] was tested, and the pIC50 was at most 6.30.
For O=C(NC1CCCC1)c1cnc(Nc2ccc(C(F)(F)F)c(Cl)c2)nc1N[C@H](CO)c1ccccc1 [Compound 472, 2-{[3-chloro-4-(trifluoromethyl)phenyl]amino}-N-cyclopentyl-4-{[(1S)-2-hydroxy-1-phenylethyl]amino}pyrimidine-5-carboxamide], the pIC50 was at most 6.30.
With CCOC(=O)c1cnc(Nc2ccc3c(c2)CNC3=O)nc1N[C@H](CO)c1ccccc1 [Compound 565, ethyl 4-[[(1S)-2-hydroxy-1-phenyl-ethyl]amino]-2-[(1-oxoisoindolin-5-yl)amino]pyrimidine-5-carboxylate] the pIC50 was over 7.30.
Compound N#Cc1cnc(Nc2ccc3c(c2)CCNC3=O)nc1N[C@H](CO)c1ccccc1 [Compound 567, 4-[[(1S)-2-hydroxy-1-phenyl-ethyl]amino]-2-[(1-oxo-3,4-dihydro-2H-isoquinolin-6-yl)amino]pyrimidine-5-carbonitrile] has a pIC50 of at most 6.30.
Compound CCOC(=O)c1cnc(Nc2ccc3c(c2)NC(=O)CCC3)nc1N[C@H](CO)c1ccccc1 [Compound 574, ethyl 4-[[(1S)-2-hydroxy-1-phenyl-ethyl]amino]-2-[(2-oxo-1,3,4,5-tetrahydro-1-benzazepin-8-yl)amino]pyimidine-5-carboxylate] has a pIC50 of at most 6.30.
With CCOC(=O)c1cnc(N(c2ccc3c(c2)CCCNC3=O)c2ncc(C(=O)OCC)c(N[C@H](CO)c3ccccc3)n2)nc1N[C@H](CO)c1ccccc1 [Compound 576, ethyl 2-[[5-ethoxycarbonyl-4-[[(1S)-2-hydroxy-1-phenyl-ethyl]amino]pyrimidin-2-yl]-(1-oxo-2,3,4,5-tetrahydro-2-benzazepin-7-yl)amino]-4-[[(1S)-2-hydroxy-1-phenyl-ethyl]amino]pyrimidin-5-carboxylate] the pIC50 was 6.70 to 7.30.
For CS(=O)(=O)c1ccc(Nc2ncc3[nH]c(=O)n([C@H](CO)c4ccccc4)c3n2)cc1F [Compound 577, 2-(3-fluoro-4-methylsulfonyl-anilino)-9-[(1S)-2-hydroxy-1-phenyl-ethyl]-7H-purin-8-one], the pIC50 was at most 6.30.
In the case of C=Cc1noc(-c2cnc(Nc3ccc4c(c3)CCN(COCC[Si](C)(C)C)C4=O)nc2N[C@H](CO)c2ccccc2)n1 [Compound 580, 6-[[4-[[(1S)-2-hydroxy-1-phenyl-ethyl]amino]-5-(3-vinyl-1,2,4-oxadiazol-5-yl)pyrimidin-2-yl]amino]-2-(2-trimethylsilylethoxymethyl)-3,4-dihydroisoquinolin-1-one], the pIC50 was over 7.30.
